The values below come from patent publication US6723702B2, “Use of relaxin treat diseases related to vasoconstriction” (RAS Medical, Inc., priority 2000, dated 2004).

One data set relates to conscious rats. The data set is described as follows: Ringer's solution time control during chronic infusion of porcine RLX. As to conditions: RLX 4 μg/hour s.c. day 5. It counts as in vivo, rat. On the procedure:
At least 7 days after the implantation of vascular and bladder catheters, osmotic minipumps containing either porcine RLX (4 μg/hour) or vehicle (Ringer's solution) were implanted in intact, female rats (n=7 and 6 rats, respectively). Renal function and MAP were measured on day 5 of relaxin infusion (three 30-minute urine and midpoint blood collections). Next, an infusion of L-NAME (2 μg/minute, a substrate competitive inhibitor of NO synthase) was administered intravenously (i.v.) by infusion pump (Model 200, KD Scientific, Boston, Mass.). Four 1-hour urine collections with midpoint blood samples were collected for the assessment of GFR, ERPF, and ERVR during the L-NAME administration. Identical procedures were performed on additional animals chronically administered porcine RLX (n=5) or vehicle (n=5), except that ANG II (3 ng/minute) was infused rather than L-NAME. Finally, another four, age-matched control rats were administered Ringer's solution instead of either L-NAME or ANG II on day 5 of porcine RLX infusion.
Another group of rats chronically treated with porcine RLX was administered Ringer's solution instead of L-NAME or ANG II, and thus served as time controls. Neither MAP nor any of the renal parameters were consistently altered over the 6 hours or so of vehicle infusion, as shown in Table 3. Values are provided as mean±SEM. Relaxin, RLX. n=4 rats. Ringer's solution was infused at the same flow rate as L-NAME (Table 1) or ANG II (Table 2), 12.5 μl/min. RLX was infused at 4 μg/hour by osmotic minipump s.c.

The subject of data set [1] is Alveolar macrophages or spleen cells. The data set is described as follows: VEGF expression by RT-PCR in non-wound macrophages and immune cells. The format is in vivo, rat. The following applies: following relaxin treatment. An excerpt:
Resident macrophages and immune cells from other non-wound sources were also harvested from vehicle- and relaxin-treated rats, and assayed for VEGF expression by RT-PCR.

Data set [2] in a line: Serum rhRLX, quantitative sandwich immunoassay (Example 1). It counts as in vivo, rat. The following applies: osmotic minipump 4 μg/hour for 5 days, 17 rats, mean±SEM. The protocol:
One milliliter of blood was obtained from the rats administered rhRLX for 5 days at the end of the renal function measurements. The levels of rhRLX in serum were then measured in a quantitative sandwich immunoassay. Unemori et al. (1996) J. Clin. Invest. 98:2739-2745. Briefly, wells of a 96-well microtiter plate (Maxisorp Immunomodules, Nunc, Inc., Naperville, Ill.) were coated overnight with affinity purified anti-rhRLX rabbit polyclonal antibody. Sera were diluted in phosphate buffered saline containing Tween 20, Thimerosal, bovine serum albumin (Sigma Chemical Co., St. Louis, Mo.) and normal goat IgG (Organon Teknika-Cappel, Durham, N.C.), and 100 μl were added to wells in duplicate. […] After an appropriate incubation period at room temperature, the wells were washed again, and 100 μl of a tetramethylbenzidine solution was added to each well. After color development, the reaction was stopped, absorbances at 450/630 nm were measured, and relaxin concentrations in the sera were determined by entering data into a four-parameter logistic curve-fitting program.

The subject of a further data set is db/db mice. The data set is described as follows: Full thickness wound healing in db/db mice. It counts as in vivo, mouse. On the procedure:
To determine whether rhRlx would improve healing in this model of impaired healing, standardized full thickness (1.5 cm×1.5 cm) wounds were made on the back of db/db mice (Jackson Laboratories, Bar Harbor, Me.). Mice were treated continuously for 21 days with rhRlx via a subcutaneously implanted Alzet pump at a dose of either 0.1 mg/kg/day or 0.2 mg/kg/day. Wound areas were measured in the course of the study. Healing is presented as wound area on day 14 relative to the original size of the wound on day 0 and is calculated as: % of original wound area=[Area on day 14/area on day 0]×100. […] Wound closure was expressed as “% of original wound area.” There were 8-20 animals per group. Wound closure was 91.4% in control group vs. 64% in the relaxin-treated group (p<0.05 by Student-Newman-Kuels test). The differences in the extent of wound healing were small among vehicle control and low dose of rhRlx treatment as well as PDGF (5 μg/wound/day for 5 days) treated mice.
At day 21-post surgery, the wounds were also excised and fixed in formalin prior to paraffin embedding. Sections from the middle of the wound were stained with Masson's trichrome and evaluated by two investigators. […] Inflammatory cell accumulation was present at the wound edges.
Neovascularization is a key component of granulation tissue formation. New blood vessel formation is stimulated by a variety of growth factors including bFGF, and VEGF. […] Immunohistochemical staining of the midsection of full thickness wounds using polyclonal antibody to von Willebrand factor VIII-related antigen was used to identify new blood vessels in the wounds.

The test system of the next data set is human cardiac cells. Nature of the data set: VEGF protein secreted by human cardiac cells. It counts as cell-based. The following applies: 100 ng/ml, 24 hr. The protocol: Consistent with RT-PCR data, relaxin stimulated a small but significant dose-related increase in levels of VEGF protein secreted by human cardiac. Cells were seeded in 35 mm wells at 2.5×10^5 cells per well 24 hours prior to treatment with relaxin. Cells were washed twice with SmBM (no supplements) and incubated for 2 hr with SmBM treatment medium (containing 400 pg/ml bFGF, gentamycin, amphoteracin B, and 2% fetal calf serum) at 37° C., 5% CO2. The medium was then replaced with SmBM treatment medium without relaxin or with concentrations of relaxin from 0.1 ng/ml to 100 ng/ml. Cells were then incubated for 24 hr (37° C., 5% CO2).

The mark [3] stands for this setting: Baseline before Ringer's solution.
Setting [4] is: Ringer's solution 12.5 μl/min, 60 min.
Where [5] appears, read: Ringer's solution 12.5 μl/min, 120 min.
Setting [6] is: Ringer's solution 12.5 μl/min, 180 min.
Where [7] appears, read: Ringer's solution 12.5 μl/min, 240 min.

Regarding “Porcine RLX: lyophilized, purified porcine relaxin (Sherwood and O'Byrne 1974), dissolved in Ringer's solution”, the ERPF in the data set on conscious rats (setting [3]) was 12,927; in the data set with conscious rats (setting [4]), 12,630; with conscious rats (setting [5]) it was 12,347; in the data set on conscious rats (setting [6]), 12,353; with conscious rats (setting [7]) it was 12,090. Also, the ERVR is given as 5.93 in the data set on conscious rats (setting [3]); 6.19 in the data set with conscious rats (setting [4]); 6.40 in the data set on conscious rats (setting [5]); 6.52 with conscious rats (setting [6]); 6.53 in the data set on conscious rats (setting [7]). In addition, the GFR came to 2997 in the data set with conscious rats (setting [3]); 3008 in the data set with conscious rats (setting [4]); 3086 with conscious rats (setting [5]); 3077 with conscious rats (setting [6]); 3223 with conscious rats (setting [7]). The MAP is 119 with conscious rats (setting [3]); 123 in the data set with conscious rats (setting [4]); 121 with conscious rats (setting [5]); 122 in the data set on conscious rats (setting [6]); 121 with conscious rats (setting [7]).

For “rhRLX: recombinant human relaxin, identical in amino acid sequence to the product of the human H2 gene; A chain of 24, B chain of 29 amino acids”, in data set [1], the VEGF expression entry is listed as “did not show an upregulation”. Besides, the “serum concentration of rhRLX” value in data set [2] stood at 28.1 ± 4.8 ng/mL. Besides, the “Wound closure, % of original wound area” value in the data set on db/db mice (0.2 mg/kg/day, day 14) was found to be 64%. For the same substance, the “staining for von Willebrand factor VIII-related antigen (new blood vessels)” value in the data set on db/db mice (compared to wounds of vehicle treated animals) is given as “stronger positive staining”. Besides, the “wound histology, Masson's trichrome” value in the data set on db/db mice (day 21-post surgery) is “thick, cellular and vascular granulation tissue”. For the same substance, the “differences in the extent of wound healing vs vehicle control” value with db/db mice (low dose of rhRlx (0.1 mg/kg/day)) is given as “small”. The “VEGF secretion, maximum induction over control levels” value in the data set on human cardiac cells was found to be 155%.
